Active and inactive are the calls of the source.
Assays:
Format in all cases: functional, organism-based
Conditions in all cases: Severe acute respiratory syndrome coronavirus 2, time 73.0 hrs
[1] = test system: SARS-CoV-2; assay: Antiviral activity against SARS-CoV-2 variant Delta infected in African green monkey Vero E6 cells assessed as reduction in virus-induced cytopathic effect preincubated with virus for 1 hr followed by infection with cells and measured after 72 hrs by microscopic analysis
[2] = test system: SARS-CoV-2; assay: Antiviral activity against SARS-CoV-2 variant Omicron BA.1 infected in African green monkey Vero E6 cells assessed as reduction in virus-induced cytopathic effect preincubated with virus for 1 hr followed by infection with cells and measured after 72 hrs by microscopic analysis
[3] = test system: SARS-CoV-2; assay: Antiviral activity against SARS-CoV-2 variant Omicron BA.2 infected in African green monkey Vero E6 cells assessed as reduction in virus-induced cytopathic effect preincubated with virus for 1 hr followed by infection with cells and measured after 72 hrs by microscopic analysis
[4] = test system: SARS-CoV-2; assay: Antiviral activity against SARS-CoV-2 variant Omicron BA.3 infected African green monkey Vero E6 cells assessed as reduction in virus-induced cytopathic effect preincubated with virus for 1 hr followed by infection with cells and measured after 72 hrs by microscopic analysis
[5] = test system: SARS-CoV-2; assay: Antiviral activity against SARS-CoV-2 variant Omicron BA.4 infected African green monkey Vero E6 cells assessed as reduction in virus-induced cytopathic effect preincubated with virus for 1 hr followed by infection with cells and measured after 72 hrs by microscopic analysis
[6] = test system: SARS-CoV-2; assay: Antiviral activity against SARS-CoV-2 variant Omicron BA.5 infected African green monkey Vero E6 cells assessed as reduction in virus-induced cytopathic effect preincubated with virus for 1 hr followed by infection with cells and measured after 72 hrs by microscopic analysis

Measured: Activity

CCCCCc1cc(O)c2c(c1)OC(C)(CCC=C(C)C)C=C2 (stereo unspecified) [CANNABICHROMENE]
inactive: all assays above

CCCc1cc(O)c(C/C=C(\C)CCC=C(C)C)c(O)c1
inactive: all assays above

CCCCCc1cc(O)c(C/C=C(\C)CCC=C(C)C)c(O)c1 [CANNABIGEROL]
inactive: all assays above

CCCCCc1cc(O)c(C/C=C(\C)CCC=C(C)C)c(O)c1C(=O)O [CANNABIGEROLIC ACID]
inactive: all assays above

C=C(C)[C@@H]1CCC(C)=C[C@H]1c1c(O)cc(CCCCC)cc1O [CANNABIDIOL]
inactive: all assays above

C=C(C)[C@@H]1CCC(C)=C[C@H]1c1c(O)cc(CCC)cc1O [CANNABIDIVARIN]
inactive: all assays above

— ChEMBL document CHEMBL5321262, “Antiviral Activity of Cannabidiolic Acid and Its Methyl Ester against SARS-CoV-2” (J Nat Prod, 2023)
